Experimental data reported in patent publication US11161860B2, “Compound having effects of inhibiting phosphodiesterase 4, preparation method thereof and pharmaceutical use thereof” (Hefei Industrial Pharmaceutical Institute Co., Ltd., priority 2018, dated 2021).
Marks after values point to notes of the source that are not given here.

Assays:
[1] = test system: DNCB-induced atopic dermatitis mice; experiment: DNCB-induced dermatitis mouse model, skin thickness; type: in vivo, female BALB/C mice; conditions: for reduction of the thickness of the dermis compared with Crisaborole / reduction of the thickness of the epidermis compared with Crisaborole / reduction of the thickness of the dermis compared with the compound Y5 / reduction of the thickness of the epidermis compared with the compound Y5: 50 mg/mL topical; for reduction of the thickness of the dermis compared with Crisaborole / reduction of the thickness of the epidermis compared with Crisaborole: statistical comparison vs Crisaborole group; for Epidermal thickness / Dermis thickness: 50 mg/mL, 100 μL applied to back skin, 11 times once a day, Mean ± SD, n = 8; for Epidermal thickness: model 137.76, blank 48.93; for Dermis thickness: model 500.71, blank 194.70; for reduction of the thicknesses of the epidermal layer and dermal layer: vs model group, P<0.01; for reduction of the thickness of the dermis compared with the compound Y5 / reduction of the thickness of the epidermis compared with the compound Y5: statistical comparison vs Y5 group
Protocol: After female BALB/C mice are selected, each weighing 18-22 g, for animal adaptive breeding for 7 days, these are randomly divided into a blank group, a model group, a positive drug Crisaborole group, a hexadecadrol group, and compound groups, with 8 in each group. Except for the mice in the blank group, the remaining mice are applied with 100 μL of a 1% DNCB solution [acetone: olive oil=4:1 (V/V)] on the skin of the back of the shaved mice, and applied continuously for 3 days once a day. Then, dosing treatment starts 4 days after the mice are housed, and the test drug is applied to the back of each group of animals, wherein animals in the blank group and the model group are applied with a corresponding solvent, the positive drug Crisaborole group and hexadecadrol group are applied with 50 mg/mL of a corresponding drug, and the administration group is applied with 50 mg/mL of a corresponding compound, with 100 μL for each mouse; after application of 4 hours, 0.5% DNCB solution is applied for secondary challenge, and repeated administration and challenge treatment are performed 11 times, once a day. 24 hours after the last administration, the animals are sacrificed, and the back skins (1×0.4 cm^2) are taken and fixed in 10% formalin buffer to make pathological sections and perform HE staining; then, the epidermal and dermal layers are observed under a 100× […], and 5 areas are selected for detection of and recording the skin thickness, and then the average value is taken to represent the final thicknesses of the epidermal layer and dermal layer, respectively.

PDE4A enzyme = biological target: T1, PDE4A enzyme (Homo sapiens, UniProt P27815); experiment: Inhibition of the activity of PDE4A enzyme (fluorescence polarization, Transcreener AMP2/GMP2); type: biochemical; conditions: 1 h, mean ± spread; for remaining activity at 0.01 µM: 0.01 μM compound; for remaining activity at 0.1 µM: 0.1 μM compound; for remaining activity at 1 µM: 1 μM compound
T1 construct: GST (N); host or cells: Sf9 insect cells (baculovirus)
T1 sequence (P27815 whole entry, species assumed): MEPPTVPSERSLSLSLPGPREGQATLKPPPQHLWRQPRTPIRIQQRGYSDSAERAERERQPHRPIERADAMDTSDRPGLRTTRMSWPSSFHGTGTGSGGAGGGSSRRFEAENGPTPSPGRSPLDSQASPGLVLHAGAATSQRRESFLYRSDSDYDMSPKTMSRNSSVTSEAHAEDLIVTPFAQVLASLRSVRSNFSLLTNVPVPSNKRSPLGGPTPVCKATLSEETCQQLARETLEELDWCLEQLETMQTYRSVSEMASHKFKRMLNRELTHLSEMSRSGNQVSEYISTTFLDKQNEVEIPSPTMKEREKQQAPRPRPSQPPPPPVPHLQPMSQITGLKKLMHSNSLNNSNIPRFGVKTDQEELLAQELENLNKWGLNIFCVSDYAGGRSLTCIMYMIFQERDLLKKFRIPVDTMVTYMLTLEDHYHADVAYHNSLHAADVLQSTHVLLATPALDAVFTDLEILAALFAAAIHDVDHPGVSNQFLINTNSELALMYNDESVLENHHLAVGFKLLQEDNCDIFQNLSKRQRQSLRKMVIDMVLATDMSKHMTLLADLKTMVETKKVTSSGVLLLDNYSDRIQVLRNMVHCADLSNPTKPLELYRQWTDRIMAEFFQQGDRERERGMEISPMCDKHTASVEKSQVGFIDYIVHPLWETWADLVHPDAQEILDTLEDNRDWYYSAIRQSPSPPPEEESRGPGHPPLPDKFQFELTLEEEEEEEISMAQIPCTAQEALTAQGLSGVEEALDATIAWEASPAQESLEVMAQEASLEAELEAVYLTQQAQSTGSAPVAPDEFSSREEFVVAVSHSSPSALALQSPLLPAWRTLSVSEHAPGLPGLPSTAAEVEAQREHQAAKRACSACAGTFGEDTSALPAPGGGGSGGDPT
Protocol: The PDE4A enzyme expressed from baculovirus is labeled with N-terminal GST from Sf9 insect cells. A specified PDE4A enzyme and 1 mM cAMP are added to the newly prepared pH 7.5 Tris buffer, the enzyme solution is transferred into reaction wells, and the compound is sonicated in DMSO and then added to the enzyme solution for culturing for 10 minutes at room temperature; the substrate solution is poured into the reaction wells to initiate the reaction and cultured at room temperature for 1 hour, and a detection tracer (AMP2/GMP2 AlexaFluor 633 Tracer) and an antibody (Transcreener® AMP2/GMP2 Antibody) are added to stop the reaction for culturing for 90 minutes with gentle mixing. […]

| Structure (SMILES) | reduction of the thickness of the dermis compared with Crisaborole [1] | reduction of the thickness of the epidermis compared with Crisaborole [1] | Epidermal thickness [1] | Dermis thickness [1] | reduction of the thicknesses of the epidermal layer and dermal layer [1] | remaining activity at 0.01 µM (PDE4A enzyme) [%] | remaining activity at 0.1 µM (PDE4A enzyme) [%] | remaining activity at 1 µM (PDE4A enzyme) [%] | reduction of the thickness of the dermis compared with the compound Y5 [1] | reduction of the thickness of the epidermis compared with the compound Y5 [1] |
| --- | --- | --- | --- | --- | --- | --- | --- | --- | --- | --- |
| OB1OCc2cc(Oc3ccc(C(F)(F)F)cn3)ccc21 [Compound Y5, reference compound] | significantly reduce the thickness of the dermis of dermatitis mice (P≤0.01) | significantly reduce the thickness of the epidermis of the dermatitis mice (P≤0.05) | 90.14 ± 8.98 μm | 415.08 ± 25.00 μm | significantly reduce the thicknesses of the epidermal layer and dermal layer | 61.3 ± 3.18 | 15.3 ± 1.3 | 5.56 ± 0.28 |  |  |
| N#Cc1ccc(Oc2ccc3c(c2)COB3O)cc1 [Crisaborole, reference compound] |  |  | 105.26 ± 11.35 μm | 455.14 ± 27.27 μm | significantly reduce the thicknesses of the epidermal layer and dermal layer | 78 ± 5.02 | 35.2 ± 3.35 | 11 ± 0.52 |  |  |
| COC(=O)c1cccc2nc(Oc3ccc4c(c3)COB4O)ccc12 [PD-1] | significantly reduce the thickness of the dermis of dermatitis mice (P≤0.01) | significantly reduce the thickness of the epidermis (P≤0.01) | 75.64 ± 7.86 aa μm | 385.26 ± 20.17 a μm |  | 18.8 ± 3.23 | 5.45 ± 1.06 | 3.74 ± 0.71 | significantly reduce the thickness of the dermis of dermatitis mice (P≤0.05) | significantly reduce the thickness of the epidermis (P≤0.01) |
| O=C(O)c1cccc2nc(Oc3ccc4c(c3)COB4O)ccc12 [PD-2] |  |  | 100.26 ± 11.35 μm | 439.76 ± 30.02 μm |  | 7.42 ± 2.11 | 3.8 ± 0.76 | 2.75 ± 0.51 |  |  |
| CCOC(=O)c1cccc2nc(Oc3ccc4c(c3)COB4O)ccc12 [PD-3] | significantly reduce the thickness of the dermis of dermatitis mice (P≤0.05) |  | 98.74 ± 9.63 μm | 420.80 ± 30.55 μm |  | 17.3 ± 1.19 | 4.94 ± 1.56 | 1.98 ± 0.47 |  |  |
| N#Cc1ccc2nc(Oc3ccc4c(c3)COB4O)ccc2c1 [PD-4] | significantly reduce the thickness of the dermis of dermatitis mice (P≤0.01) | significantly reduce the thickness of the epidermis (P≤0.01) | 70.42 ± 9.24 aa μm | 375.06 ± 20.41 a a μm |  | 6.17 ± 0.34 | 2.49 ± 0.75 | 1.95 ± 0.18 | significantly reduce the thickness of the dermis of dermatitis mice (P≤0.01) | significantly reduce the thickness of the epidermis (P≤0.01) |
| COC(=O)c1cc(Oc2ccc3c(c2)COB3O)nc2ccccc12 [PD-5] |  |  | 106.74 ± 15.14 μm | 440.12 ± 23.22 μm |  | 9.01 ± 2.02 | 7.27 ± 1.78 | 3.46 ± 1.18 |  |  |
| OB1OCc2cc(Oc3ccc4cc(C(F)(F)F)ccc4n3)ccc21 [PD-6] | significantly reduce the thickness of the dermis of dermatitis mice (P≤0.01) | significantly reduce the thickness of the epidermis (P≤0.01) | 70.87 ± 14.43 ^aa μm | 380.15 ± 22.54 ^a a μm |  | 0.9 ± 0.23 | 0.6 ± 0.1 | 0.32 ± 0.13 | significantly reduce the thickness of the dermis of dermatitis mice (P≤0.01) | significantly reduce the thickness of the epidermis (P≤0.01) |
| OB1OCc2cc(Oc3ccc4c(C(F)(F)F)cccc4n3)ccc21 [PD-7] | significantly reduce the thickness of the dermis of dermatitis mice (P≤0.01) | significantly reduce the thickness of the epidermis (P≤0.01) | 68.21 ± 7.66 aa μm | 370.11 ± 24.60 a a μm |  | 6.41 ± 0.32 | 1.83 ± 0.41 | 1.12 ± 0.99 | significantly reduce the thickness of the dermis of dermatitis mice (P≤0.01) | significantly reduce the thickness of the epidermis (P≤0.01) |
| OB1OCc2cc(Oc3ccc4c(C(F)(F)F)cc(Cl)cc4n3)ccc21 [PD-8] | significantly reduce the thickness of the dermis of dermatitis mice (P≤0.01) | significantly reduce the thickness of the epidermis (P≤0.01) | 76.58 ± 8.79**^##aa μm | 385.17 ± 28.85 ^a μm |  | 4.36 ± 0.59 | 2.25 ± 1.19 | 1.21 ± 0.17 | significantly reduce the thickness of the dermis of dermatitis mice (P≤0.05) | significantly reduce the thickness of the epidermis (P≤0.01) |
| N#Cc1ccc2nc(Oc3ccc4c(c3)COB4O)cc(C(F)(F)F)c2c1 [PD-9] | significantly reduce the thickness of the dermis of dermatitis mice (P≤0.05) | significantly reduce the thickness of the epidermis of the dermatitis mice (P≤0.05) | 97.25 ± 10.43 μm | 413.25 ± 31.50 μm |  | 3.41 ± 0.45 | 1.92 ± 0.39 | 0.99 ± 0.85 |  |  |
| COC(=O)c1ccc2nc(Oc3ccc4c(c3)COB4O)ccc2c1 [PD-10] | significantly reduce the thickness of the dermis of dermatitis mice (P≤0.01) | significantly reduce the thickness of the epidermis (P≤0.01) | 92.17 ± 9.94 μm | 406.74 ± 29.54 μm |  | 10.8 ± 1.6 | 2.45 ± 0.32 | 1.55 ± 0.67 |  |  |
| NC(=O)c1cccc2nc(Oc3ccc4c(c3)COB4O)ccc12 [PD-11] |  |  | 95.37 ± 8.75 μm | 443.17 ± 33.40 μm |  | 10.1 ± 1.93 | 5.85 ± 0.72 | 1.7 ± 0.43 |  |  |
| CC(=O)c1cccc2nc(Oc3ccc4c(c3)COB4O)ccc12 [PD-12] | significantly reduce the thickness of the dermis of dermatitis mice (P≤0.01) | significantly reduce the thickness of the epidermis (P≤0.01) | 72.15 ± 8.57 aa μm | 362.44 ± 25.78 ^a a μm |  | 22.1 ± 0.57 | 6.2 ± 1.23 | 3.46 ± 1.12 | significantly reduce the thickness of the dermis of dermatitis mice (P≤0.01) | significantly reduce the thickness of the epidermis (P≤0.01) |
| NC(=O)c1ccc2nc(Oc3ccc4c(c3)COB4O)ccc2c1 [PD-13] |  |  | 100.23 ± 11.62 μm | 450.26 ± 25.55 μm |  | 21.7 ± 1.51 | 8.68 ± 0.89 | 1.44 ± 0.4 |  |  |
| C[C@@H]1C[C@H]2[C@@H]3CCC4=CC(=O)C=C[C@]4(C)[C@@]3(F)[C@@H](O)C[C@]2(C)[C@@]1(O)C(=O)CO [hexadecadrol, reference compound] |  |  | 72.14 ± 10.58 ^a a μm | 377.32 ± 22.05**^a a μm | significantly reduce the thicknesses of the epidermal layer and dermal layer |  |  |  |  |  |
